We go through 17 compounds from EP0103381B1, “Substituted anthra(1,9-cd)pyrazol-6(2H)-ones” (WARNER-LAMBERT COMPANY, priority 1982, dated 1984).

Read-outs that look alike come from different tables or passages of the source.

Assay [1] concerns lymphocytic leukemia P388. The experiment in a line: in vivo lymphocytic leukemia P388 test. More on the design: species or system mice. The conditions noted are these: Mus musculus, P388, ip, 720 h, two single doses four days apart, read-out: T/C × 100 (Percent); for response vs control in vivo at 6.25 mg/kg: P388, Dose 6.25 mg/kg intraperitoneally; for response vs control in vivo at 12.5 mg/kg: P388, Dose 12.5 mg/kg intraperitoneally; for response vs control in vivo at 3.12 mg/kg: P388, Dose 3.12 mg/kg intraperitoneally; for response vs control in vivo at 50 mg/kg: P388, Dose 50 mg/kg intraperitoneally; for response vs control in vivo at 25 mg/kg: P388, Dose 25 mg/kg intraperitoneally; for response vs control in vivo at 100 mg/kg: P388, Dose 100 mg/kg intraperitoneally; for response vs control in vivo at 1.56 mg/kg: P388, Dose 1.56 mg/kg intraperitoneally. As to the method:
The in vivo lymphocytic leukemia P388 test is carried out by the United States National Cancer Institute. The animals used are either male or female CD2F, mice. There are six to seven animals per test group. The tumor transplant is by intraperitoneal injection of dilute ascitic fluid containing cells of lymphocytic leukemia P388. The test compounds are administered intraperitoneally in two single doses with a four-day interval between doses at various dose levels following tumor inoculation. The animals are weighed and survivors are recorded on a regular basis for 30 days. A ratio of survival time for treated (T)/ control (C) animals is calculated. The criterion for efficacy is T/C x 100 > 125%. The positive control compound in this test is 1,4-dihydroxy-5,8-[bis[[2-[(2-hydroxyethyl)amino]-ethyl]amino]-9,10-anthracene- dione given at dosages ranging from 12.0 to 0.075 mg/kg. See Cancer Chemotherapy Reports, Part 3, 3, 1 (1972) for a comprehensive discussion of the protocol.

The test system of a further assay is Streptococcus faecalis. The experiment in a line: agar plate paper-disc inhibition zone screening. In kind it is cell-based. Particulars: Enterococcus faecalis, read-out: Inhibition Zone Diameter mm (Dose mg/ml) S. Faecalis. Here is the method:
(§1) The bacterial and yeast isolates are maintained in agar slants or in liquid media, hereby designated as inoculum media. The cultures are transferred at regular intervals in such media. (See Table for the corresponding inoculum media of each culture.) The organisms are generally transferred on to agar slants or liquid inoculum media and incubated overnight (18-20 hours): 37°C for the bacterial isolates and 28°C for the fungal cultures.
(§2) The microbial cells from the overnight agar slants are then scraped off and suspended in saline solution (0.85% NaCI). The microbial concentrations are adjusted to a light transmittancy of 20-35%, Junior Coleman Spectrophotometer (555 M). For the organisms that are maintained in liquid media, an aliquot of the culture suspension is simply diluted with saline to 20-35% light transmittancy.
(§3) The above microbial suspension serve as inocula for the assay plates. Thus, 0.16-10 ml (see Table for exact amount) are used to inoculate 100 ml of the molten-agar assay medium.
(§4) Stainless steel frames, 12.3 x 25.3 cm (ID) and glass plates, 15.3 x 31.7 cm are used to make the test trays. The frames are attached to the plates with tape at each end and the inner edges sealed with 2% agar. Twenty five ml of inoculated assay medium is spread evenly on each tray and allowed to solidify. The trays are covered, inverted, and refrigerated until used.
(§5) The compounds or samples to be tested are dissolved in suitable solvents, e.g., alcohols, dimethylsulfoxide, or N,N-dimethylformamide. The samples are generally dissolved so that the final concentration of the solvent is <10%.^* The compounds are tested at different concentrations: 3,000; 1,000; 500; 100; and 10 mcg/ml. Paper discs (12.7 mm diameter) are placed on the agar trays with forceps, then 0.08 ml of the dissolved compound is pipetted onto each disc using a 0.2 ml pipette.
(§6) The disked agar trays are incubated overnight (18-20 hours) at 37°C for the bacterial cultures and 28°C for the yeasts. The Penicillium avellaneium tray is incubated for at least […] since it is a slower- growing organism.
(§7) Active compounds show a zone of inhibition around the disc. The diameter of the zone is measured in mm. The zone diameter of active compounds ranges from a minimum of 13.5 mm to as high as 60 mm. The size of the zone diameter generally reflects the activity of the compound: the larger the zone the greater the activity.

The next assay deals with Bacillus subtilis. The experiment in a line: agar plate paper-disc inhibition zone screening. Particulars: read-out: Inhibition Zone Diameter mm (Dose mg/ml) B. Subtilis. In kind it is cell-based. As to the method:
as §1, §2, §3, §4, §5, §6, §7

In another assay the test system is Penicillium avellaneum. As to the kind of experiment: agar plate paper-disc inhibition zone screening. In kind it is cell-based. Particulars: Hamigera avellanea, read-out: Inhibition Zone Diameter mm (Dose mg/ml) P. Avellaneum. Here is the method: The Penicillium avellaneum is grown for six days, at 28°C, on an agar medium. This is to allow sporulation of the culture. The organism is then harvested by scraping off the cells from the agar surface (mycelia and spores) and suspending them in saline solution containing 0.05% Tween 80.
The suspension is adjusted to a light transmittancy of 20%. One ml of this suspension is used to inoculate 100 ml of the molten-agar assay medium.
as §4, §5, §6, §7

Turning to `CSCCn1nc2c3c(c(NCCNCCO)ccc31)C(=O)c1c(O)ccc(O)c1-2` [Example 48], in assay [1], the response vs control in vivo at 6.25 mg/kg is 140% and the response vs control in vivo at 12.5 mg/kg is 132%.
Turning to `CN(C)CCNCCn1nc2c3c(c(NCCNCCO)ccc31)C(=O)c1c(O)ccc(O)c1-2` [Example 50, 2-[2-[[2-(Dimethylamino)ethyl]amino]ethyl]-5-[[2-[(2-hydroxyethyl)amino]ethyl]amino]-7,10-dihydroxyanthra[1,9-cd]pyrazol-6(2H)-one], in assay [1], the response vs control in vivo at 3.12 mg/kg is 207%, the response vs control in vivo at 6.25 mg/kg worked out at 188% and the response vs control in vivo at 50 mg/kg stood at 226%.
Regarding `CN(CCO)CCn1nc2c3c(c(NCCNCCO)ccc31)C(=O)c1c(O)ccc(O)c1-2` [Example 51, 7,10-Dihydroxy-5-[[2-[(2-hydroxyethyl)amino]ethyl]amino]-2-[2-[(2-hydroxyethyl)-methylamino]ethyl]anthra[1,9-cd]pyrazol-6(2H)-one], in assay [1], the response vs control in vivo at 3.12 mg/kg came to 184%, the response vs control in vivo at 6.25 mg/kg stood at 182% and the response vs control in vivo at 12.5 mg/kg came to 203%.
Consider `O=C1c2c(O)ccc(O)c2-c2nn(CCCNCCO)c3ccc(NCCNCCO)c1c23` [Example 52, 7,10-Dihydroxy-5-[[2-[(2-hydroxyethyl)amino]ethyl]amino]-2-[3-((2-hydroxyethyi)amino]propyl]anthra[1,9-cd]pyrazol-6(2H)-one], for which, in assay [1], the response vs control in vivo at 12.5 mg/kg came to 157%, the response vs control in vivo at 25 mg/kg is 183% and the response vs control in vivo at 100 mg/kg came out at 259%.
On to `NCCCNc1ccc2c3c(nn2CCCNCCO)-c2c(O)ccc(O)c2C(=O)c13` [Example 53], for which the response vs control in vivo at 50 mg/kg in assay [1] was 160%.
Turning to `NCCNCCNc1ccc2c3c(nn2CCNCCO)-c2c(O)ccc(O)c2C(=O)c13` [Example 66, 5-[[2-[(2-Aminoethyl)amino]ethyl]amino]-7,10-dihydroxy-2-[2-[(2-hydroxyethyl)amino]ethyl]anthra[1,9-cd]pyrazol-6(2H)-one], in assay [1], the response vs control in vivo at 12.5 mg/kg turned out to be 233% and the response vs control in vivo at 25 mg/kg worked out at 221%.
`O=C1c2c(O)ccc(O)c2-c2nn(CCNCCO)c3ccc(NCCN(CCO)CCO)c1c23` [Example 67, 5-[[2-[Bis(2-hydroxyethyl)amino]ethyl]amino]-7,10-dihydroxy-2-[2-[(2-hydroxyethyl)-amino]ethyl]anthra(1,9-cd]pyrazol-6(2H)-one]: in assay [1], the response vs control in vivo at 12.5 mg/kg amounted to 158% and the response vs control in vivo at 25 mg/kg amounted to 187%.
`O=C1c2c(O)ccc(O)c2-c2nn(CCNCCO)c3ccc(NCCCN(CCO)CCO)c1c23` [Example 68]: in assay [1], the response vs control in vivo at 25 mg/kg amounted to 163%, the response vs control in vivo at 50 mg/kg came to 167% and the response vs control in vivo at 100 mg/kg was found to be 192%.
`NCCCNCCCCNCCCNc1ccc2c3c(nn2CCNCCO)-c2c(O)ccc(O)c2C(=O)c13` [Example 69, 5-[(3-[[4-[(3-Aminopropyl)amino]butyl]amino]propyl]amino]-7,10-dihydroxy-2-[2-[(2-hydroxyethyl)-amino]ethyl]anthra(1,9-cd]pyrazol-6(2H)-one]: the response vs control in vivo at 6.25 mg/kg in assay [1] amounted to 127%.
`CNCCNc1ccc2c3c(nn2CCNCCO)-c2c(O)ccc(O)c2C(=O)c13` [Example 70, 7,10-Dihydroxy-2-[2-[(2-hydraxyethyl)amino]ethyl]-5-[[2-(methylamino)ethyl]amino]anthra[1,9-cd]pyrazol-6(2H)-one]: in assay [1], the response vs control in vivo at 6.25 mg/kg was 277% and the response vs control in vivo at 12.5 mg/kg was 277%.
Take `NCCn1nc2c3c(c(NCCCNCCO)ccc31)C(=O)c1c(O)ccc(O)c1-2` [Example 75, 2-(2-Aminoethyl)-5-[[3-[(2-hydroxyethyl)amino]propyl]amino]-7,10-dihydroxyanthra[1,9-cd]pyrazol-6(2H)-one]: in assay [1], the response vs control in vivo at 1.56 mg/kg was 181%, the response vs control in vivo at 3.12 mg/kg was 177% and the response vs control in vivo at 6.25 mg/kg is 184%. The zone of inhibition at 3000 µg/mL in the assay on Streptococcus faecalis (Dose 3.0 mg/ml) was 0 mm. Moreover, the zone of inhibition at 500 µg/mL in the assay on Bacillus subtilis (Dose 0.5 mg/ml) came out at 14 mm. Moreover, in the assay with Penicillium avellaneum (Dose 3.0 mg/ml), the zone of inhibition at 3000 µg/mL worked out at 0 mm.
`O=C1c2c(O)ccc(O)c2-c2nn(CC(O)CO)c3ccc(NCCNCCO)c1c23` (stereo not drawn) [Example 78, 2-(2,3-Dihydroxypropyl)-7,10-dihydroxy-5-[[2-[(2-hydroxyethyl)amino]ethyl]amino]anthra[1,9-cd]pyrazol-6(2H)-one]: in assay [1], the response vs control in vivo at 25 mg/kg was determined as 184%, the response vs control in vivo at 50 mg/kg was 177% and the response vs control in vivo at 100 mg/kg amounted to 208%. Moreover, the response vs control in vivo at 200 mg/kg in assay [1] (P388, Dose 200 mg/kg intraperitoneally) was 218%.
In the case of `O=C1c2c(O)cccc2-c2nn(CCNCCO)c3ccc(NCCNCCO)c1c23` [Example 83], the zone of inhibition at 3000 µg/mL was 0 mm in the assay with Streptococcus faecalis, 14 mm in the assay on Bacillus subtilis and 0 mm in the assay on Penicillium avellaneum.
Take `CNCCNc1ccc2c3c(nn2CCNCCO)-c2cccc(O)c2C(=O)c13` [Example 84, 7-Hydroxy-2-[2-[(2-hydroxyethyl)amino]ethyl]-5-[[2-(methylamino)ethyl]amino]anthra[1,9-cd]pyrazol-6(2H)-one]: the values for the zone of inhibition at 3000 µg/mL with Streptococcus faecalis (Dose 3.0 mg/ml), in the assay on Bacillus subtilis (Dose 3.0 mg/ml) and in the assay with Penicillium avellaneum (Dose 3.0 mg/ml) were 14 mm, 15 mm and 0 mm, respectively.
Take `O=C1c2c(O)cc(O)c(O)c2-c2nn(CCNCCO)c3ccc(NCCNCCO)c1c23` [Example 86, 7,9,10-Trihydroxy-2-[2-[(2-hydroxyethyl)amino]ethyl]-5-[[2-[(2-hydroxyethyl)amino]lethyl]amino]-anthra[1,9-cd]pyrazol-6(2H)-one]: in assay [1], the response vs control in vivo at 1.56 mg/kg was 155% and the response vs control in vivo at 3.12 mg/kg came to 165%.
On to `O=C1c2c(O)c(O)cc(O)c2-c2nn(CCNCCO)c3ccc(NCCNCCO)c1c23` [Example 87, 7,8,10-Trihydroxy-2-[2-[(2-hydroxyethyl)amino]ethyl]-5-[[2-[(2-hydroxyethyl)amino]ethyl]amino]-anthra[1,9-cd]pyrazol-6(2H)-one], for which, in assay [1], the response vs control in vivo at 12.5 mg/kg came to 257% and the response vs control in vivo at 25 mg/kg worked out at 265%.
Take `CN(C)CCNCCNc1ccc2c3c(nn2CCCN)-c2c(O)ccc(O)c2C(=O)c13` [Example 91]: the zone of inhibition at 3000 µg/mL with Streptococcus faecalis (Dose 3.0 mg/ml) came out at 0 mm; in the assay with Bacillus subtilis (Dose 3.0 mg/ml), 15 mm; in the assay with Penicillium avellaneum (Dose 3.0 mg/ml) it was 0 mm.
